According to patent US10800791B2, “Triazole ACC inhibitors and uses thereof” (Gilead Apollo, LLC, priority 2015, dated 2020):
≈ marks a conversion by molar mass, not a printed value. Like-named read-outs stand apart in the source and are kept apart here.

Experiments:
human (hACC2) = human (hACC2) (Homo sapiens, UniProt O00763); experiment: In vitro ACC inhibition assay (ADP-Glo), hACC2; assay type: biochemical; conditions: Table 2b, additional results, 5 nM ACC2, 20 μM ATP, 20 μM acetyl-CoA
Method: The detailed procedure is as follows. […] 10 μL ADP glo reagent was added. […] 20 μL kinase detection reagent was added.

C. albicans = experiment: Antifungal Activity Assay (broth microtiter MIC), C. albicans; assay type: cell-based, Candida albicans; conditions: Candida albicans, ATCC90028, 48 h
Procedure, shortened: (§1)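 MICs were scored by eye at 48 h relative to the growth control. Plates followed CLSI M27-A3, with Candida suspensions in RPMI 1640+MOPS giving a final 2.5×10^3 CFU/mL; the colonies came from Sabouraud agar grown overnight at 35 °C.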

C. krusei = experiment: Antifungal Activity Assay (broth microtiter MIC), C. krusei; assay type: cell-based, Candida krusei; conditions: Pichia kudriavzevii, ATCC6258, 48 h
Procedure, shortened: as §1

C. parapsilosis = experiment: Antifungal Activity Assay (broth microtiter MIC), C. parapsilosis; assay type: cell-based, Candida parapsilosis; conditions: Lodderomyces parapsilosis, ATCC22019, 48 h
Procedure, shortened: as §1

Botrtyis cinerea (Bc) = experiment: Growth inhibition assay of fungal pathogens, Bc; assay type: cell-based; conditions: 48 h, growth inhibition at 48 hours vs 2% DMSO control
Procedure, shortened: (§2)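 Spores from sub-cultured plates were diluted in 17% V8 liquid medium and exposed to compound from DMSO stocks at final concentrations of 50, 10 and 2 ppm or 2, 0.4 and 0.08 ppm. OD600 and visual ratings at 48 h were compared with the 2% DMSO control to give percent growth inhibition.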

[1] = system: Collectotrichum graminicola (Cg); experiment: Growth inhibition assay of fungal pathogens, Cg; assay type: cell-based; conditions: 48 h, growth inhibition at 48 hours vs 2% DMSO control
Procedure, shortened: as §2

Diplodia maydis (Dm) = experiment: Growth inhibition assay of fungal pathogens, Dm; assay type: cell-based; conditions: Stenocarpella maydis, 48 h, growth inhibition at 48 hours vs 2% DMSO control
Procedure, shortened: as §2

[2] = system: Fusarium moniliforme (Fm); experiment: Growth inhibition assay of fungal pathogens, Fm; assay type: cell-based; conditions: Fusarium verticillioides, 48 h, read-out: Concentration at 90% Inhibition Fm
Procedure, shortened: as §2

[3] = system: Fusarium virguliforme (Fv); experiment: Growth inhibition assay of fungal pathogens, Fv; assay type: cell-based; conditions: 48 h
Procedure, shortened: as §2

[4] = system: Phytophthora capsici (Pc); experiment: Growth inhibition assay of fungal pathogens, Pc; assay type: cell-based; conditions: 48 h
Procedure, shortened: as §2

Rhizoctonia solani (Rs) = experiment: Growth inhibition assay of fungal pathogens, Rs; assay type: cell-based; conditions: 48 h
Septoria tritici (St) = experiment: Growth inhibition assay of fungal pathogens, St; assay type: cell-based; conditions: Zymoseptoria tritici, 48 h, growth inhibition at 48 hours vs 2% DMSO control
Procedure, shortened: as §2

fungal (fACC2) = fungal (fACC2) (UniProt Q00955); conditions: read-out: fACC2 (in vitro ACC2 Inhibition Assay, IC50); Table 2b, additional results; ADP-Glo, 5 nM ACC2, 20 μM ATP, 20 μM acetyl-CoA
[5] = read-out: MIC, C. albicans ATCC 90028, Table 3b (additional results), 3 replicates, MIC recorded at 48 h
[6] = read-out: MIC, C. krusei ATCC 6258, Table 3b (additional results), 3 replicates, MIC recorded at 48 h
[7] = read-out: MIC, C. parapsilosis ATCC 22019, Table 3b (additional results), 3 replicates, MIC recorded at 48 h
[8] = read-out: Concentration at 90% Inhibition Bc, Botrtyis cinerea
[9] = read-out: Concentration at 90% Inhibition Cg, Collectotrichum graminicola
[10] = read-out: Concentration at 90% Inhibition Dm, Diplodia maydis
[11] = read-out: Concentration at 90% Inhibition Fv, Fusarium virguliforme, growth inhibition at 48 hours vs 2% DMSO control
[12] = read-out: Concentration at 90% Inhibition Pc, Phytophthora capsici, growth inhibition at 48 hours vs 2% DMSO control
[13] = read-out: Concentration at 90% Inhibition Rs, Rhizoctonia solani, mycelial plugs, growth inhibition at 48 hours vs 2% DMSO control
[14] = read-out: Concentration at 90% Inhibition St, Septoria tritici
[15] = Table 3b (additional results), ATCC 90028, 3 replicates, MIC recorded at 48 h, read-out: MIC, C. albicans ATCC 90028
[16] = Table 3b (additional results), ATCC 6258, 3 replicates, MIC recorded at 48 h, read-out: MIC, C. krusei ATCC 6258
[17] = Table 3b (additional results), ATCC 22019, 3 replicates, MIC recorded at 48 h, read-out: MIC, C. parapsilosis ATCC 22019
[18] = Botrtyis cinerea, read-out: Concentration at 90% Inhibition Bc
[19] = Collectotrichum graminicola, read-out: Concentration at 90% Inhibition Cg
[20] = Diplodia maydis, read-out: Concentration at 90% Inhibition Dm
[21] = Fusarium moniliforme, growth inhibition at 48 hours vs 2% DMSO control
[22] = growth inhibition at 48 hours vs 2% DMSO control, read-out: Concentration at 90% Inhibition Fv
[23] = growth inhibition at 48 hours vs 2% DMSO control, read-out: Concentration at 90% Inhibition Pc
[24] = mycelial plugs, growth inhibition at 48 hours vs 2% DMSO control, read-out: Concentration at 90% Inhibition Rs
[25] = Septoria tritici, read-out: Concentration at 90% Inhibition St

Sequence of fungal (fACC2) (Q00955 whole entry): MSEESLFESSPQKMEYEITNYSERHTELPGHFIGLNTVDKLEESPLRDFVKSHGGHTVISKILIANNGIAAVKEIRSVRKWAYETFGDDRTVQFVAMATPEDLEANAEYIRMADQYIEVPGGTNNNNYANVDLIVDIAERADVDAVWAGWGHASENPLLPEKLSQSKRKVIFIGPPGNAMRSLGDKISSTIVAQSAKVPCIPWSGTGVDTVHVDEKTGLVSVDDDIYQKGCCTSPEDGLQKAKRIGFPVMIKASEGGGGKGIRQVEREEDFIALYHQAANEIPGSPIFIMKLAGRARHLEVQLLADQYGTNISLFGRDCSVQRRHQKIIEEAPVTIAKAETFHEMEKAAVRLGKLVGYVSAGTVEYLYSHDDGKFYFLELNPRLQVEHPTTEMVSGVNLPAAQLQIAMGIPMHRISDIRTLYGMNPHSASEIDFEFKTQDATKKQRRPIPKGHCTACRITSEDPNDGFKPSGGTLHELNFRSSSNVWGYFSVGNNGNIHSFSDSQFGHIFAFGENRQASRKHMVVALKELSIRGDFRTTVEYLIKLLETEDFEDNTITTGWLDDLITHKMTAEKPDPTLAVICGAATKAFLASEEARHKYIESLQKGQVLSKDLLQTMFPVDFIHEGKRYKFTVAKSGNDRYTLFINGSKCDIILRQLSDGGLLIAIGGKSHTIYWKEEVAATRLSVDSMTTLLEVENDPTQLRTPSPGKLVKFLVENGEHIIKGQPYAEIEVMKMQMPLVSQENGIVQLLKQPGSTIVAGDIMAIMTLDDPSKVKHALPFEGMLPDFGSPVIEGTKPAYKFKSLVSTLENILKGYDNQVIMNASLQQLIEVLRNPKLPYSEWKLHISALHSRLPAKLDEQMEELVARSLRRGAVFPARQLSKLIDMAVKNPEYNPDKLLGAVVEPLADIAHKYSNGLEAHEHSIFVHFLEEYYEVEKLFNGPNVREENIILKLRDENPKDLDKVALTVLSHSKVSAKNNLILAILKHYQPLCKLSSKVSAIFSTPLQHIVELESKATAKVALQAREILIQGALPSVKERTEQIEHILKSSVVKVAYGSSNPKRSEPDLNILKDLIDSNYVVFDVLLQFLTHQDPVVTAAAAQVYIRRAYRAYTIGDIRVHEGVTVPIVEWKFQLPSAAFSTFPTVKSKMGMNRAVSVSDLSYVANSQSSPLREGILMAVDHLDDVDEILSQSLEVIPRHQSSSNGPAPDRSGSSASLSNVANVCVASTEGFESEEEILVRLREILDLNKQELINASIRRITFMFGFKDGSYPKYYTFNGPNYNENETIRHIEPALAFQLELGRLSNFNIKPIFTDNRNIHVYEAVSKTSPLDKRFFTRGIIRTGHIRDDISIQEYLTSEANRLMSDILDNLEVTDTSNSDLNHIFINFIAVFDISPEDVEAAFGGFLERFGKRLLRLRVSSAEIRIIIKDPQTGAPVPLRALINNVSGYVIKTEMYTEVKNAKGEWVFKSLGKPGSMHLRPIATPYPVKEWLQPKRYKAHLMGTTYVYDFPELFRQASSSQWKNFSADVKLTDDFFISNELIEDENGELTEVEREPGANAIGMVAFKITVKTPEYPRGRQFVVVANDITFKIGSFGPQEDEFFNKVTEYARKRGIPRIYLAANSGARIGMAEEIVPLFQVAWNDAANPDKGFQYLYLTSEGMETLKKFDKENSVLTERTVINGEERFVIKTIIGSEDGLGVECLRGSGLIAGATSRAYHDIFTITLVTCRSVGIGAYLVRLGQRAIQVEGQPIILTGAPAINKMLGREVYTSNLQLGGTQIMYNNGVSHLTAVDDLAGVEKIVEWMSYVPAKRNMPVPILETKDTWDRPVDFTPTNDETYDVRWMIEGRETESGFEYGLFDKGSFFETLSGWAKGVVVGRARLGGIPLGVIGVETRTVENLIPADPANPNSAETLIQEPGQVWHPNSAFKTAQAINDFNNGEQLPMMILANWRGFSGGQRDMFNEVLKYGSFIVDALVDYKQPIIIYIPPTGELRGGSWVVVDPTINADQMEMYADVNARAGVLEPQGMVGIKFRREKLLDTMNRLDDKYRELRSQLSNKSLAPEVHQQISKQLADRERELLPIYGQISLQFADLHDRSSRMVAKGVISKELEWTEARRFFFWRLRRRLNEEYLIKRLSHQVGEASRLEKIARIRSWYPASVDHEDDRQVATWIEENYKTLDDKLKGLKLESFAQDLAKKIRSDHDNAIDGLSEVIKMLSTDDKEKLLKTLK
Sequence of human (hACC2) (O00763 whole entry): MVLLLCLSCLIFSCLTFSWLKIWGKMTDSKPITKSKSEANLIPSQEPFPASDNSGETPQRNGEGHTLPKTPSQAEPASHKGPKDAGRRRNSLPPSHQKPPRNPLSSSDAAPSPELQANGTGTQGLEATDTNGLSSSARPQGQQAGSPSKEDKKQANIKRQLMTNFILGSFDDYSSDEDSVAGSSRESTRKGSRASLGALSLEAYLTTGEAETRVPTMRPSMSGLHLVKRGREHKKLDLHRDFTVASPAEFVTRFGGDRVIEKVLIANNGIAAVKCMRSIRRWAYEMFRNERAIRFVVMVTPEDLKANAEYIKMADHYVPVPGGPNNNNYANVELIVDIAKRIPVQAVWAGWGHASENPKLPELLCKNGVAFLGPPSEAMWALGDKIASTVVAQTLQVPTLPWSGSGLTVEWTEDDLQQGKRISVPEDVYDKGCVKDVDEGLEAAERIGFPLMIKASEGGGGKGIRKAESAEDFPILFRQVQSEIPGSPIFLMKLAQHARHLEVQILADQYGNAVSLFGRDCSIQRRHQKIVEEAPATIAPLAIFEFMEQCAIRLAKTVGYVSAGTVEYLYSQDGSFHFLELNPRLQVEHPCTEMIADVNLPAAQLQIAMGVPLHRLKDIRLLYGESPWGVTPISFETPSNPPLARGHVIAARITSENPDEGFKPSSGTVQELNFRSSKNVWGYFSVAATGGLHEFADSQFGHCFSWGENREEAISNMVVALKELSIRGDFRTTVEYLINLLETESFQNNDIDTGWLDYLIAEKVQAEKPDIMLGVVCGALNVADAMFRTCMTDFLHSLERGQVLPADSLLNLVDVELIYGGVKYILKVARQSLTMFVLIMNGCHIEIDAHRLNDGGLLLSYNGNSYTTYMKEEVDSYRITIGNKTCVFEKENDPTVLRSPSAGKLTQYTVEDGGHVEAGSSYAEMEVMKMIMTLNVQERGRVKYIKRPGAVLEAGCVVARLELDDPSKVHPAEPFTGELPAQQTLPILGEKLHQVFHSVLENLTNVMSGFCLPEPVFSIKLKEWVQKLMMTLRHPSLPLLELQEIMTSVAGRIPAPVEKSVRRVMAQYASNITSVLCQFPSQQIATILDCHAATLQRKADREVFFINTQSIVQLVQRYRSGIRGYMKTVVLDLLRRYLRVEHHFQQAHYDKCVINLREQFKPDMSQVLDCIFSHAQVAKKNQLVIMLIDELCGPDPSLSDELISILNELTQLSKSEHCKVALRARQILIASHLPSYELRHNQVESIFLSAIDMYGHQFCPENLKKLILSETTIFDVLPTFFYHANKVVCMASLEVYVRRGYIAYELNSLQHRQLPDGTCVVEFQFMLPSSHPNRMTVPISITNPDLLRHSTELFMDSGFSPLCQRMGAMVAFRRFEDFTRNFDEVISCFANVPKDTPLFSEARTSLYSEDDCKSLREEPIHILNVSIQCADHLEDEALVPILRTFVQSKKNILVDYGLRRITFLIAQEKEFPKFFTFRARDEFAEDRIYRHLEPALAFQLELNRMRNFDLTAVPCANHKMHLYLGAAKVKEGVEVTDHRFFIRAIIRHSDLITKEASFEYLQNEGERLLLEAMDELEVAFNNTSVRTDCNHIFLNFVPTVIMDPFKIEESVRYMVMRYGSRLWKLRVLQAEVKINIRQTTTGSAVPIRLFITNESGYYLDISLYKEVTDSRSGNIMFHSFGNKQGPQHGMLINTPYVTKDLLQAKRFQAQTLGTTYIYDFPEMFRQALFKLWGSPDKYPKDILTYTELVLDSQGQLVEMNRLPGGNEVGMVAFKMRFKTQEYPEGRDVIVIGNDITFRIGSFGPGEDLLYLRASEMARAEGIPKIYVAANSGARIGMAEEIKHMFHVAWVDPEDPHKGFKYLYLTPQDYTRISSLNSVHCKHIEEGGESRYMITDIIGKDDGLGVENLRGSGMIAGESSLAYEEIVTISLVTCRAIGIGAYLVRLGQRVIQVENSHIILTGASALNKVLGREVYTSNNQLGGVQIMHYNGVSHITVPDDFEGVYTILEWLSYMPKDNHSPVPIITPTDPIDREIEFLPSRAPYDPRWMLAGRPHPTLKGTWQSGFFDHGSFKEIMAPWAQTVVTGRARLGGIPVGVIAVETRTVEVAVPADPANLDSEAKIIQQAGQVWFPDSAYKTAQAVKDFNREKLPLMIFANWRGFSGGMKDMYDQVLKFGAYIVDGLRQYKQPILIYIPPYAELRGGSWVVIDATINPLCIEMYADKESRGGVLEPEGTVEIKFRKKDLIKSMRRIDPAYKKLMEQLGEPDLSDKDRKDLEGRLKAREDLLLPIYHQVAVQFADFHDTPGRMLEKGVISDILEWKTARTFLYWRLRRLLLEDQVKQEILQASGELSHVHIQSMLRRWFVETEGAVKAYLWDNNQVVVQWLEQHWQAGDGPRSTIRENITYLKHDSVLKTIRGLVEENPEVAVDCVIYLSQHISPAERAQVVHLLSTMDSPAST

SMILES	IC50 (human (hACC2)) [nM]	MIC (C. albicans; [5]) [µg/mL]	MIC (C. krusei; [6]) [µg/mL]	MIC (C. parapsilosis; [7]) [µg/mL]	IC90 (Botrtyis cinerea (Bc); [8]) [µg/mL]	IC90 [1, 9] [µg/mL]	IC90 (Diplodia maydis (Dm); [10]) [µg/mL]	IC90 [2] [µg/mL]	IC50 (fungal (fACC2)) [nM]	MIC (C. albicans; [15]) [µg/mL]	MIC (C. krusei; [16]) [µg/mL]	MIC (C. parapsilosis; [17]) [µg/mL]	IC90 (Botrtyis cinerea (Bc); [18]) [µg/mL]	IC90 [1, 19] [µg/mL]	IC90 (Diplodia maydis (Dm); [20]) [µg/mL]	IC90 [2, 21] [µg/mL]	IC90 [3, 22] [µg/mL]	IC90 [4, 23] [µg/mL]	IC90 (Rhizoctonia solani (Rs); [24]) [µg/mL]	IC90 (Septoria tritici (St); [25]) [µg/mL]	also measured
COc1ccc(F)cc1[C@@](O)(CO)Cn1c(=O)n(C(C)(C)C(=O)NC(C)C)c(=O)c2c(C)c(-n3nccn3)sc21 [Compound I-225]	5 to 10	0.25 to 1 (≈ 0.435 to 1.74 µM)	0.25 to 1 (≈ 0.435 to 1.74 µM)	1.01 to 2 (≈ 1.76 to 3.48 µM)	0.4 (≈ 0.696 µM)	0.08 (≈ 0.139 µM)	0.4 (≈ 0.696 µM)	0.08 (≈ 0.139 µM)	1 to 5												IC90 [3, 11]: 0.4 µg/mL (≈ 0.696 µM); IC90 [4, 12]: 2 µg/mL (≈ 3.48 µM); IC90 (Rhizoctonia solani (Rs); [13]): 0.08 µg/mL (≈ 0.139 µM); IC90 (Septoria tritici (St); [14]): > 50 µg/mL
Cc1c(-n2nccn2)sc2c1c(=O)n(C(C)(C)C(=O)NC(C)C)c(=O)n2C[C@H](OCCO)c1cc(F)ccc1O [Compound I-226]	10 to 40								0.3 to 1	2.01 to 4 (≈ 3.5 to 6.96 µM)	1.01 to 2 (≈ 1.76 to 3.48 µM)	2.01 to 4 (≈ 3.5 to 6.96 µM)	10 (≈ 17.4 µM)	10 (≈ 17.4 µM)	> 50	2 (≈ 3.48 µM)	10 (≈ 17.4 µM)	> 50	2 (≈ 3.48 µM)	> 50	
COc1ccc(Cl)cc1[C@H](Cn1c(=O)n(C(C)(C)C(=O)NC(C)C)c(=O)c2c(C)c(-n3nccn3)sc21)OCC(C)(C)C#N [Compound I-227]	10 to 40								1 to 5	0.25 to 1 (≈ 0.389 to 1.56 µM)	0.25 to 1 (≈ 0.389 to 1.56 µM)	1.01 to 2 (≈ 1.57 to 3.11 µM)	2 (≈ 3.11 µM)	2 (≈ 3.11 µM)	2 (≈ 3.11 µM)	2 (≈ 3.11 µM)	2 (≈ 3.11 µM)	> 50	2 (≈ 3.11 µM)	> 50	
COc1ccc(F)cc1[C@](C)(Cn1c(=O)n(C(C)(C)C(=O)NC(C)C)c(=O)c2c(C)c(-n3nccn3)sc21)OCCC#N [Compound I-229]	> 40								1 to 5	0.25 to 1 (≈ 0.409 to 1.63 µM)	0.25 to 1 (≈ 0.409 to 1.63 µM)	1.01 to 2 (≈ 1.65 to 3.27 µM)	0.4 (≈ 0.654 µM)	2 (≈ 3.27 µM)	> 50	0.08 (≈ 0.131 µM)	0.4 (≈ 0.654 µM)	> 50	2 (≈ 3.27 µM)	> 50	
COc1ccc(F)cc1[C@@](C)(Cn1c(=O)n(C(C)(C)C(=O)NC(C)C)c(=O)c2c(C)c(-n3nccn3)sc21)OCCC#N [Compound I-230]	10 to 40								0.3 to 1	0.25 to 1 (≈ 0.409 to 1.63 µM)	0.25 to 1 (≈ 0.409 to 1.63 µM)	1.01 to 2 (≈ 1.65 to 3.27 µM)	0.4 (≈ 0.654 µM)	0.08 (≈ 0.131 µM)	0.4 (≈ 0.654 µM)	0.08 (≈ 0.131 µM)	0.4 (≈ 0.654 µM)	2 (≈ 3.27 µM)	0.08 (≈ 0.131 µM)	> 50	
COc1ccc(F)cc1[C@@](O)(CCO)Cn1c(=O)n(C(C)(C)C(=O)NC(C)C)c(=O)c2c(C)c(-n3nccn3)sc21 [Compound I-231]	10 to 40	0.06 to 0.249 (≈ 0.102 to 0.423 µM)	0.06 to 0.249 (≈ 0.102 to 0.423 µM)	1.01 to 2 (≈ 1.72 to 3.4 µM)	2 (≈ 3.4 µM)	2 (≈ 3.4 µM)	2 (≈ 3.4 µM)	0.4 (≈ 0.68 µM)	1 to 5												IC90 [3, 11]: 2 µg/mL (≈ 3.4 µM); IC90 [4, 12]: 10 µg/mL (≈ 17 µM); IC90 (Rhizoctonia solani (Rs); [13]): 0.08 µg/mL (≈ 0.136 µM); IC90 (Septoria tritici (St); [14]): > 50 µg/mL
